Consider 36 compounds from PubChem BioAssay AID2305 (GlaxoSmithKline (GSK), 2010).

For the assay, the system named is P. falciparum 3D7 growth, pLDH absorbance. As to the kind of experiment: P. falciparum 3D7 growth inhibition, dose response, strain 3D7 (AID 2305).

As usually defined, the IC50 is the concentration that inhibits the measured activity by half. In the case of `CCN(CC)CCN(Cc1ccc(-c2ccc(C(F)(F)F)cc2)cc1)C(=O)Cn1c(CCc2cccc(F)c2F)nc(=O)c2sccc21`, the IC50 is 900 nM.

`COc1cc2c(cc1NS(=O)(=O)c1ccc(OCc3ccc(Br)cc3)cc1)CCN(C1CCC1)CC2` came in with an IC50 of 840 nM.

Regarding `Cc1cc(-c2ccc(O)c(CNC3CCCCC3)c2)cnc1N`, the IC50 was found to be 200 nM.

Compound `CCCc1cc(N2CCC(c3ccccc3)(N3CCCCC3)CC2)nc(Nc2ccc(OC)cc2)n1` returned an IC50 of 1090 nM.

As to `CCN(CC)CCNc1ccc(Nc2ccnc3cc4ccccc4cc23)cc1`, the concentration for half-maximal inhibition (IC50) is 200 nM.

`O=C(N[C@@H](Cc1ccccc1)C(=O)NC1CCCc2ccccc21)c1ccc(O)c(-c2ccc(Cl)c(Cl)c2)c1` (stereo partly specified) displayed a half-inhibitory concentration (IC50) of 210 nM.

Regarding `O=C(Cn1c(CCc2cccc(F)c2F)nc(=O)c2ccccc21)N(Cc1ccc(-c2ccc(C(F)(F)F)cc2)cc1)C1CCN(C2CCOCC2)CC1`, the half-maximal inhibitory concentration (IC50) amounted to 740 nM.

`Nc1c2ccccc2nc2ccc(-c3ccccc3)cc12`: the concentration for half-maximal inhibition (IC50) amounted to 140 nM.

In the case of `c1ccc(CN2CCC(NCc3ccc(-c4ccc(CNCc5cccnc5)cn4)cc3)CC2)cc1`, the IC50 amounted to 880 nM.

With `c1ccc(Nc2nc(-c3ccccn3)cs2)nc1`, the IC50 was determined as 1150 nM.

Compound `c1ccc(CN2CCC(NCc3ccccc3-c3cccc(CNCc4ccc5c(c4)OCO5)c3)CC2)cc1` showed an IC50 of 570 nM.

With `CN(C)c1ccc(OCCCCCCOc2ccccc2)cc1`, the IC50 amounted to 500 nM.

Turning to `Cc1noc(-c2cccs2)c1C(=O)NC(C)c1cccc2ccccc12` (stereo unspecified), the IC50 was found to be 130 nM.

Regarding `Cc1ccc(NC(=O)c2ccc3ncccc3c2)cc1OC1CCN(Cc2ccsc2)C1` (stereo unspecified), the IC50 was 800 nM.

`Cc1nc2nc(N)nc(N)c2c(C)c1Cc1cccc(C(N)=O)c1` gave a 50% inhibitory concentration (IC50) of 1080 nM.

For the compound `CCCCCCCN1CC[C@@H](CCCc2ccnc3ccc(OCCC4CCNCC4)cc23)[C@@H](CC)C1`, the 50% inhibitory concentration (IC50) is 610 nM.

Compound `Nc1ncc(-c2ccccc2)cc1-c1cccc2ncccc12` gave an IC50 of 270 nM.

As for `CCCCc1ccc(C(=O)Nc2ccc3nc(N4CCN(C)CC4)cc(C)c3c2)cc1`, the IC50 worked out at 1100 nM.

Compound `CNC(=O)c1cc(S(=O)(=O)Nc2ccc(OC)cc2)cs1` showed an IC50 of 1130 nM.

`COc1cc(-c2cc(-c3ccc(OCCN(C)C)cc3)[nH]c2-c2ccncc2)ccc1Cl` gave an IC50 of 710 nM.

As to `COc1cccc2c(NN=Cc3cccc(F)c3)ccnc12`, the half-inhibitory concentration (IC50) is 930 nM.

For the compound `COc1cc(NCCCNCC2c3ccccc3Oc3ccccc32)nc2ccccc12`, the concentration for half-maximal inhibition (IC50) is 330 nM.

With `CN(C)C(=O)CCCn1c(CNCCCNc2cc(=O)c3ccccc3[nH]2)cc2c(Cl)cc(Cl)cc21`, the IC50 was 1190 nM.

The compound `CCC(CC)(CCC#N)CN(C[C@@H](O)[C@H](Cc1ccccc1)NC(=O)OC(C)(C)C)S(=O)(=O)c1ccc(OC)cc1` registered a concentration for half-maximal inhibition (IC50) of 1040 nM.

Compound `Cc1csc(NC2=NCCN2)n1` returned an IC50 of 470 nM.

Take `CN(c1ccc(NC(=O)Nc2cc(C(C)(C)C)on2)cc1)c1ccnc(NCCN2CCOCC2)n1`: the IC50 amounted to 1120 nM.

In turn, `Nc1c2ccccc2nc2ccc(Cl)cc12` displayed a half-inhibitory concentration (IC50) of 810 nM.

In turn, `Cn1ccnc1Sc1ncccc1[N+](=O)[O-]` registered an IC50 of 970 nM.

For the compound `COc1ccc(-c2cc(Nc3nc(-c4cccc(Cl)c4)nc4ccccc34)ccn2)cc1`, the half-inhibitory concentration (IC50) was 730 nM.

In turn, `Cc1ccc(C(c2nnnn2C2CCCC2)N(Cc2ccco2)Cc2ccccc2Cl)cc1` (stereo unspecified) displayed a half-inhibitory concentration (IC50) of 960 nM.

In the case of `CCc1ccc(NC(=O)c2ccc(CN3CCCN(CC4CCCCC4)CC3)cc2)cc1`, the half-inhibitory concentration (IC50) stood at 710 nM.

In turn, `O=C(Nc1cccc(-c2ccc(CN3CCCC3)cc2)c1)c1cccc(F)c1` registered an IC50 of 780 nM.

Consider `C(=Cc1ccccc1)C=NNc1ccnc2ccccc12`, for which the 50% inhibitory concentration (IC50) was determined as 730 nM.

For the compound `CCN1CCC(N(Cc2ccc(-c3ccc(C(F)(F)F)cc3)cc2)C(=O)Cn2c(CCc3cccc(F)c3F)cc(=O)c3c2CCC3)CC1`, the IC50 stood at 970 nM.

`O=C(Cc1cnc[nH]1)Nc1cccc(-c2ccc(-c3nc4ccc(C(F)(F)F)cc4[nH]3)cc2)c1`: the IC50 is 700 nM.

The compound `CCN(CC)C(=O)c1cnc(-c2ccccc2)nc1Oc1cccc(Cl)c1` gave a concentration for half-maximal inhibition (IC50) of 1160 nM.
